# From US5663172A, “Preventive agent for platelet aggregation” (Nippon Soda Co., Ltd., priority 1992, dated 1997)
# Where two headings read alike, the source gives them in different places.
# Key:
# [1] = test system: platelet aggregation (rabbit platelet rich plasma); assay: Preventive effect on platelet aggregation in vitro (aggregometer; rabbit platelet rich plasma; ADP or collagen induced); format: cell-based, rabbits; conditions: for EC50: Oryctolagus cuniculus, Platelet, rabbit PRP
# Method: Preventive Effect on Platelet Aggregation The preventive effect on platelet aggregation of the compounds and the complexes of the present invention was evaluated in vitro based on the preventive effect on the platelet aggregation induced by adenosine diphosphate (ADP) and collagen, which is determined by using an aggregometer, Hematracer PAT-606 produced by Nicho Bioscience Co., Ltd. Blood collected from rabbits containing 0.38% citric acid was centrifuged at 1100 rpm for 15 min. to obtain platelet rich plasm (PRP). The PRP obtained was then centrifuged at 3500 rpm for 10 min., and the supernatant obtained was provided as platelet poor plasma (PPP). PRP was diluted with PPP to adjust the concentration of platelets in PRP to a range of from 2×10^8 /ml to 5×10^8 ml. .left brkt-top.Either ADP at the final concentration of 10 μM or collagen at the final concentration of 20 μg/ml, which was prepared with SKF buffer solution (Collagen reagent Horm, Hormon Chemie) was used for the induction of platelet aggregation. .right brkt-bot. Test compound was dissolved into dimethyl sulfoxide (DMSO), then 0.5 ml of PRP prepared as described above was added to 0.5 μl of the solution, then mixed for about 3 min. Then, 0.2 ml portion was taken out of the mixture, and either ADP solution or collagen solution in an amount of 22 μl was added thereto to proceed to the measurement of platelet aggregation for 10 min. by using an aggregometer. The preventive effect on platelet aggregation was determined in the prevention rate (%) in respect to the aggregation rate in the check plot. The rate of prevention onto platelet aggregation was calculated according to the following equation. Platelet Aggregation Prevention Rate (%)=(Maximum Aggregation Rate(%) of Platelet when only DMSO is added-Maximum Aggregation Rate(%) of Platelet when Test Compound and DMSO are added).div.Maximum Aggregation Rate(%) of Platelet when only DMSO is added Based on the dose-response curve obtained according to the equation described above, EC50, a dose attaining 50% prevention of platelet aggregation, was determined.
# Mice = assay: Preventive effect on thrombus-causing death (collagen + epinephylline i.v. in mice); format: in vivo; conditions: for ED50: Mus musculus, po, 0.5 h, read-out: ED50 for preventing Thrombus-causing Death
# Method: Preventive Effect on Thrombus-causing Death
# Mice in a state without feeding for a night were orally administrated with a test compound, and then injected intravenously with collagen in an amount of 400 μg/Kg and epinephylline in an amount of 50 μg/Kg through their tail at a fixed speed in accordance with the method of DiMinno and Silver (DiMinno, G. and Silver, M. J., J. Pharmacol. Exp. Thor., 225, 57-60, 1983). After 30 min., the mice were checked to determine their survival rate and to calculate EC50, a dose attaining 50% prevention of the death of the mice. The collagen and epinephylline were used in a form of a mixed solution prepared with SKF buffer solution and saline, respectively. Test compounds were administrated to mice after preparing each suspensions of the compounds in 1% aqueous solution of gum arabic.
# [2] = molecular target: T1, Cyclic guanosine monophosphate inhibiting-type cyclic adenosine monophosphate phosphodiesterase (cAMP-PDE) (Canis lupus familiaris, UniProt A0A8I3NYE0); assay: Inhibitory effect on phosphodiesterase (cGMP inhibiting-type cAMP-PDE from canine platelets); format: biochemical; conditions: for IC50: canine platelets, 1 μM [3H]-cAMP
# T1 construct: derived from canine platelets was prepared according to the method of Thompson et. al; from tissue; host or cells: canine platelets (DEAE-cellulose fraction)
# T1 sequence (A0A8I3NYE0 1-1135): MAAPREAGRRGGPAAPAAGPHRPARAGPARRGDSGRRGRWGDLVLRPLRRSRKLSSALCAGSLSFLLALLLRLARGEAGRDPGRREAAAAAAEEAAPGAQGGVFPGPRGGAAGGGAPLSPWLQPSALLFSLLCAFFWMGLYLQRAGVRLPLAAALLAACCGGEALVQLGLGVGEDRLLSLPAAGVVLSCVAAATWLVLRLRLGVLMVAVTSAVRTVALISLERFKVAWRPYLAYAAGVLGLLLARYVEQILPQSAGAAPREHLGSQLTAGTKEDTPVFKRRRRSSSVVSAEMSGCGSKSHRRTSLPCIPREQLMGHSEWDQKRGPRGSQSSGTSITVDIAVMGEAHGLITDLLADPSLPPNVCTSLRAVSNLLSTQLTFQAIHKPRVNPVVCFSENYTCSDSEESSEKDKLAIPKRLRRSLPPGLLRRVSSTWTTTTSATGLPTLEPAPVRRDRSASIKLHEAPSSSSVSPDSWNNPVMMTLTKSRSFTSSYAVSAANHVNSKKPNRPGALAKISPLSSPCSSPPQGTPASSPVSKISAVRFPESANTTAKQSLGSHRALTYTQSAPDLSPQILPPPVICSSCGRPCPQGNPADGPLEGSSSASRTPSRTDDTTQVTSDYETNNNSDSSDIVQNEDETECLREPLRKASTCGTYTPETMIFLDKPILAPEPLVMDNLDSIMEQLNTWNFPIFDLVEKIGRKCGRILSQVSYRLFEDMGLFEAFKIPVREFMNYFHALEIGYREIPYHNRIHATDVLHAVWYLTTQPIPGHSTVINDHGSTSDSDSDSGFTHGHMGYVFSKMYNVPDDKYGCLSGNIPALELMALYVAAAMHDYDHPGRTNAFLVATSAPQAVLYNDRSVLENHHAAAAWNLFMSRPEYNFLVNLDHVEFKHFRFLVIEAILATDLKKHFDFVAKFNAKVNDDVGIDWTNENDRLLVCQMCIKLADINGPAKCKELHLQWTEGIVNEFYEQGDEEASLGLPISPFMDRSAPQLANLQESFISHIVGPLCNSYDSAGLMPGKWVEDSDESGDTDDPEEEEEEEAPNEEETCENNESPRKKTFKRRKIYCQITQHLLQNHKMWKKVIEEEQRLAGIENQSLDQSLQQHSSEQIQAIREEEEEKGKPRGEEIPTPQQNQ
# [3] = test system: Left Cardiac Ventricle (dp/dt max), heart rate, blood pressure; assay: Cardiotonic effect in anesthetized Beagle dogs (dp/dt max, heart rate, blood pressure); format: in vivo; conditions: for ED50: Canis lupus familiaris, cumulative 0.001 to 0.3 mg/0.1 ml/Kg, read-out: ED50 for dp/dt max in Left Cardiac Ventricle (dose attaining 50% increase)
# Method: Male and female Beagle dogs in a weight range of from 10 to 15 Kg were anesthetized to provide them for the test. The dogs were anesthetized by intravenous injection with sodium pentobarbital at a dose of […], and the anesthetized condition was maintained by subsequent intravenous injection with sodium pentobarbital at a dose of 4 mg/Kg/hr. A cannula for drip infusion either of physiological saline solution or anesthetic injection was inserted into a femoral vein, and a cannula for measuring arterial blood pressure was inserted into a femoral artery via a pressure transducer. Heart rate was recorded by conducting R-wave of the electrocardiogram (ECG) to a heart beat counter. Secondary induction from electrocardiogram was measured via a bioelectricity-adapted amplifier. Internal pressure of left cardiac ventricle was measured by inserting a catheter-type pressure transducer from a left carotid into left cardiac ventricle. Differential values by time of the internal pressure in left cardiac ventricle (dp/dt max) were measured by conducting the internal pressure in left cardiac ventricle to a derivative amplifier. The test compound was cummulatively administrated at a rate of from 0.001 to 0.3 mg/0.1 ml/Kg though a cannula inserted into a femoral vein. Based on a dose-response curve obtained, ED50, a dose attaining 50% increase of the dp/dt max in left cardiac ventricle, was determined.
# [4] = test system: Left Cardiac Ventricle (dp/dt max), heart rate, blood pressure; assay: as above; format: in vivo; conditions: i.v. at 0.3 mg/kg (footnote *)
# [5] = ADP at final concentration 10 μM, read-out: EC50 for Platelet Aggregation Prevention, ADP
# [6] = collagen at final concentration 20 μg/ml, read-out: EC50 for Platelet Aggregation Prevention, Collagen
# [7] = i.v., anesthetized Beagle dogs, dose not stated
SMILES,"EC50 [1, 5] [µM]","EC50 [1, 6] [µM]",ED50 (Mice) [mg/kg],IC50 [2] [µM],"ED50 ([3]; iv, anesthetized Beagle dogs) [mg/kg]","% Change in Blood pressure [3, 7] [%]","% Change in Heart Rate [3, 7] [%]",% Change in Blood pressure [4] [%],% Change in Heart Rate [4] [%],% Change in dp/dt max in Left Cardiac Ventricle [4] [%],"% Change in Blood pressure ([3]; dog, in vivo, iv) [%]","% Change in Heart Rate ([3]; dog, in vivo, iv) [%]",Effect in Test Example 1 (platelet aggregation) compared with compound No. 2 ([1]; in words),Effect in Test Example 2 (thrombus-causing death) compared with compound No. 2 (Mice; in words),Effect in Test Example 3 (phosphodiesterase) compared with compound No. 2 ([2]; in words),Effect in Test Example 4 (cardiotonic effect) compared with compound No. 2 ([3]; in words)
CCCC1=C(Nc2ccc(C3=NNC(=O)CC3)cc2)CCC1=O [compound 3],22.8,12.9,6.8,0.37,0.1,-10.5,7.5,,,,,,,,,
"CCCC1=C(Nc2ccc(C3=NNC(=O)CC3)cc2)CCCC1=O [Compound No. 1, 4,5-dihydro-6-[4-[(2-propyl-3-oxo-1-cyclohexenyl)amino]phenyl]-3(2H)-pyridazine]",29.8,9.3,5,0.43,> 0.3,,,-8.6,5.2,32,,,,,,
"O=C1CCc2cc(OCCCCc3nnnn3C3CCCCC3)ccc2N1 [Cilostazol, reference compound]",10.2,4.3,300,0.6,0.2,,,,,,-2.1,15,,,,
"CCCC1=C(Nc2ccc(C3=NNC(=O)CC3C)cc2)CCCC1=O (stereo not drawn) [Compound No. 2, 4,5-dihydro-5-methyl-6-[4-[(2-propyl-3-oxo-1-cyclohexenyl)amino]phenyl]-3(2H)-pyridazinone]",4.5,3.6,1.7,0.088,0.052,-10.0,9.8,,,,,,as much as the effects given by the compound No. 2,as much as the effects given by the compound No. 2,as much as the effects given by the compound No. 2,as much as the effects given by the compound No. 2
